We go through two compounds from patent US20040157793A1, “Modified nucleosides as antiviral agents” (priority 2002, published 2004).

The subject of series [1] is HepG2 cells. Put plainly: Cell growth of HepG2 cells during 14-day treatment. The following applies: HepG2, up to 100 μM, 14 days. Format: cell-based, human. The procedure: (§1) In addition, these compounds were also tested in the HepG2 cell line (14-day treatment, 100 μM) for their ability to reduce mitochondrial DNA levels (using a newly designed normalized Q-PCR protocol as described in Stuyver, L. J., et al. 2002, Antimicrob. Agents Chemother., 46:3854-3860) or lactic acid production.

Series [2] deals with HBV (3TC-resistant virus: rtV204) in HepAD79 cells. Put plainly: microbe, parasite or virus in culture. Format: cell-based. The following applies: for HepAD79 log10 inhibition at 10 μM / EC90: HepAD79 cells, 13-day incubation; for HepAD79 log10 inhibition at 10 μM: HBV DNA in supernatant; for EC90: read-out: HepAD79 EC90; for FI EC90 AD79/EC90 AD38: fold increase, EC90 HepAD79 over EC90 HepAD38. As for the experimental part: (§2) HepAD38 and HepAD79 cells were seeded at 5×10^4 cells/well in a 96-well plate in seeding medium (DMEM/F12+10% FBS, 50 μg/ml penicillin, 50 μg/ml streptomycin, 100 μg/ml kanamycin, 400 μg/ml G418, and 0.3 μg/ml tetracycline) and incubated for 2 days at 37° C. in a 5% CO2, humidified atmosphere. The seeding media was removed, and cells were washed 3 times with PBS. Cells were then incubated with 200 μL assay medium (DMEM/F12+10% FBS+P/S/K) containing either (i) no compound, (ii) test compound, or (iii) control drugs at 10 μM. After an additional 5-day (HepAD38) or 13-day incubation (HepAD79, with renewal of the culture media at day 7), the cell supernatant was collected and stored at −70° C. until HBV DNA was quantified.
HBV DNA was extracted from supernatant using QiaAmp DNA blood Mini kit (Qiagen) and nucleic acids eluted in 200 μl Viral DNA was detected by quantitative PCR (Q-PCR). The TaqMan probe and primers were designed using the Primer Express software (Applied Biosystems) and cover highly conserved sequences complementary to the DNA sequences present in HBsAg. A total of 5 μl DNA was amplified using reagents and conditions as described by the manufacturer (Applied Biosystems).
Subsequently, the time course of viral induction in HepAD79 cells over a 13-day incubation period was investigated.
Therefore, the DNA extracted from the cell supernatant was also amplified by Q-PCR for the presence of cellular DNA (the rRNA gene).

Series [3] deals with HBV (wild-type virus: rtM204) in HepAD38 cells. Kind of series: Suppression of HBV production in HepAD38 cells, viral DNA in supernatant by Q-PCR. The class given is cell-based. As to conditions: HepAD38 cells, 5-day incubation; for HepAD38 log10 inhibition at 10 μM: HBV DNA in supernatant; for EC90: concentration reducing viral load by 90%, unit printed in text only, read-out: HepAD38 EC90.
From the text: The HepAD38 (wild-type virus: rtM204) and HepAD79 (3TC-resistant virus: rtV204) (Stuyver L. J. et al. 2001, Hepatol., 33:751-757) cell lines replicate HBV under conditions that can be regulated with tetracycline (King R. W. et al. 2000, Methods in Molecular Medicine, Vol 24: Antiviral Methods and Protocols, 43-50 (eds: D. Kinchington & R. F. Schinazi), Humana Press Inc, Totowa, N.J.); Ladner, et al. 1997, Antimicrob. Agents Chemother., 41:1715-1720; Ladner S. K., et al. 1998a. Antivir. Chem. Chemother., 9:65-72; Ladner S. K., et al. 1998b. Antimicrob. Agents Chemother., 42:2128-31). In the presence of this drug, the cell supernatant is virtually free of viral DNA, but upon the removal of tetracycline from the culture medium, these cells secrete virus-like particle into the supernatant.
as §2
HBV DNA was extracted from supernatant using QiaAmp DNA blood Mini kit (Qiagen) and nucleic acids eluted in 200 μl Viral DNA was detected by quantitative PCR (Q-PCR). The TaqMan probe and primers were designed using the Primer Express software (Applied Biosystems) and cover highly conserved sequences complementary to the DNA sequences present in HBsAg. A total of 5 μl DNA was amplified using reagents and conditions as described by the manufacturer (Applied Biosystems). […]

Series [4] deals with HepG2 cells. Kind of series: Lactic acid production in HepG2 cells. The following applies: HepG2, up to 100 μM, 14 days. The class given is cell-based, human. The procedure:
as §1

In series [5] the test system is HepG2 cells (mitochondrial COXII DNA). As to conditions: for Average ΔCt ± s.d. MitCoxII / Average ΔCt ± s.d. rDNA / Average ΔΔCt ± s.d. MitCOXII-rDNA / Fold difference in COXII DNA levels normalized for rDNA (range) relative to control: HepG2, 14-day treatment; for effect on mitochondrial DNA levels (in words): HepG2, up to 100 μM, 14 days.
For a further series, the system named is M522V virus (rtV204 HBV). The following applies: Ono S. K. et al.; cited from earlier work.

Where two headings read alike, the source gives them in different places.

One may read the EC90 as the concentration needed for an effect of 90%. As usually defined, the EC50 is the concentration at which the effect is half-maximal.

Take `Nc1nc(=O)n([C@@H]2C=C(F)[C@H](CO)O2)cc1F` [L-3′F-D4FC, β-L-3′-fluoro-2′,3′-didehydro-2′,3′-dideoxy-5-fluorocytidine]: in the series on HepG2 cells [1], the “effect on cell growth (in words)” value is given as “did not show any reduction in cell growth”. Besides, in series [2], the “HepAD79 log10 inhibition at 10 μM” value was found to be 1.56 ± 0.40 log10, the EC90 came to 3100 nM and the “FI EC90 AD79/EC90 AD38” value amounted to 14.1. Also, in series [3], the “HepAD38 log10 inhibition at 10 μM” value is listed as 2.8 ± 0.09 log10 and the EC90 worked out at 220 ± 140 nM. Also, the EC90 in series [3] (listed as L-3F-D4FC) worked out at 250 nM. Besides, the “total lactic acid production (in words)” value in the series with HepG2 cells [4] is “no increase in total lactic acid production”. In series [5] (1 μM), the “Average ΔCt ± s.d. MitCoxII” value was found to be 0.00 ± 0.13, the “Average ΔCt ± s.d. rDNA” value is given as −0.46 ± 0.06, the “Average ΔΔCt ± s.d. MitCOXII-rDNA” value was found to be 0.35 ± 0.01 and the “Fold difference in COXII DNA levels normalized for rDNA (range) relative to control” value is listed as 0.78 (0.79-0.78). Also, in series [5] (10 μM), the “Average ΔCt ± s.d. MitCoxII” value worked out at 0.23 ± 0.13, the “Average ΔCt ± s.d. rDNA” value is listed as −0.10 ± 0.06, the “Average ΔΔCt ± s.d. MitCOXII-rDNA” value turned out to be 0.33 ± 0.10 and the “Fold difference in COXII DNA levels normalized for rDNA (range) relative to control” value is reported as 0.80 (0.85-0.74). In series [5] (100 μM), the “Average ΔCt ± s.d. MitCoxII” value is given as −0.52 ± 0.28, the “Average ΔCt ± s.d. rDNA” value is listed as −0.94 ± 0.16, the “Average ΔΔCt ± s.d. MitCOXII-rDNA” value turned out to be 0.42 ± 0.13 and the “Fold difference in COXII DNA levels normalized for rDNA (range) relative to control” value is 0.75 (0.82-0.68). Also, the “effect on mitochondrial DNA levels (in words)” value in series [5] is recorded as “no reductions in mitochondrial DNA levels”.
As for `Nc1nc(=O)n([C@@H]2C=C[C@H](CO)O2)cc1F` [L-d4FC], the “effect on cell growth (in words)” value with HepG2 cells [1] is given as “reduced the cell growth significantly”. Also, in the series with M522V virus (rtV204 HBV), the EC50 is 1800 nM. Also, in series [2], the “HepAD79 log10 inhibition at 10 μM” value was 1.64 ± 0.37 log10, the EC90 amounted to 880 nM and the “FI EC90 AD79/EC90 AD38” value was 17.6. In series [3], the “HepAD38 log10 inhibition at 10 μM” value worked out at 2.56 ± 0.44 log10 and the concentration for an effect of 90% (EC90) worked out at 50 ± 20 nM. In addition, in series [5] (10 μM), the “Average ΔCt ± s.d. MitCoxII” value is on record as 2.72 ± 0.27, the “Average ΔCt ± s.d. rDNA” value amounted to 3.89 ± 0.23, the “Average ΔΔCt ± s.d. MitCOXII-rDNA” value is reported as −1.17 ± 0.47 and the “Fold difference in COXII DNA levels normalized for rDNA (range) relative to control” value was 2.25 (1.62-3.12). In series [5] (100 μM), the “Average ΔCt ± s.d. MitCoxII” value is on record as 6.52 ± 0.14, the “Average ΔCt ± s.d. rDNA” value was found to be 8.76 ± 0.47, the “Average ΔΔCt ± s.d. MitCOXII-rDNA” value was 2.24 ± 0.58 and the “Fold difference in COXII DNA levels normalized for rDNA (range) relative to control” value was 4.72 (3.16-7.04). Also, the “effect on mitochondrial DNA levels (in words)” value in series [5] is “did not specifically affect the mitochondrial DNA levels”.
